Reference: patent US9150578B2, “5,8-dihydro-6H-pyrazolo[3,4-h]quinazolines as IGF-1R/IR inhibitors” (Boehringer Ingelheim International GmbH, priority 2012, dated 2015)
pEC50, pIC50: −log10 of the molar value.

Experiments:
[1] = target: cytoplasmic kinase domain of human IGF-1R (IGF-1R-GST) (Homo sapiens (Human), UniProt P08069); assay: Insulin-like growth factor-1 receptor (IGF-1R) kinase assay (DELFIA); assay type: biochemical; settings: inhibition of IGF-1R-kinase activity, read-out: IGF1R IC50
Protocol: Insulin-Like Growth Factor-1 Receptor (IGF-1R)-Kinase Assay
The kinase activity is measured by DELFIA® assay (dissociation-enhanced lanthanide fluorescence immunoassay, Perkin Elmer). […] Enzyme activity is measured in the presence of substances and a control substance. Poly-glutamate-tyrosine peptide (pEY, Sigma Aldrich) and biotinylated pEY (bio-pEY) are used as reaction substrates.
After 40 min at RT the reactions are stopped with 50 μL of stop solution (250 mM EDTA, 20 mM HEPES pH 7.4). 90 μL from each reaction are transferred onto streptavidin-coated 96-well plates. After 120 min incubation at RT the plates are washed three times with 200 μL phosphate-buffered saline (PBS) per well. The plates are incubated for 60 min with 100 μL of europium-coupled antibody against phospho-tyrosine (diluted 1/2000 in Perkin Elmer DELFIA assay buffer) per well. The plates are washed three times with 200 μL per well of DELFIA washing buffer. 100 μL DELFIA Enhancement Solution (Perkin Elmer) is added to each well, and the plates are incubated for 10 min. The fluorescence signal is measured with a Wallac Victor TRF Reader. IC50 values for the inhibition of the IGF-1R-kinase activity are calculated using the programmes Fifty (Version 2) and GraphPad (Version 3.0).

human IGF-1R = human IGF-1R (Homo sapiens (Human), UniProt P08069); assay: Cellular IGF-1R-phosphorylation assay (Fibro-hIGF-1R cells); assay type: cell-based; settings: IGF-1 stimulated (20 ng/mL, 30 min), 120 min compound incubation, read-out: pIGF-1R EC50 range
Protocol: Cellular IGF-1R-Phosphorylation Assay
The activity of substances against the phosphorylation of IGF-1R in activated cells is measured as follows: mouse fibroblast cells (transfected with human IGF-1R, Fibro-hIGF-1R) are cultivated in standard medium (DMEM, 10% foetal calf serum (FCS, Gibco), 1×MEM Non-Essential Amino Acids (NEAA, Gibco), 7.5% sodium hydrogen carbonate (Gibco) and 0.3 mg/mL Puromycin (Sigma)) in a humid incubator at 37° C. with 5 CO2/95% air.
10000 Fibro-hIGF-1R cells per well in 200 μL of standard medium are seeded into 96-well plates and cultivated overnight. […] 10 μL of substance solution (diluted in serum-reduced medium) is added thereto, and the cells are incubated for a further 120 min in the incubator. The phosphorylation of IGF-1R is activated for 30 min by the addition of IGF-1 (20 ng/mL in serum-reduced medium). All further incubations are carried out at RT. The supernatant is suction filtered from the wells, and the cells are fixed in 100 μL per well of 4% paraformaldehyde (diluted in PBS). The supernatant in the well is suction filtered and the cells are permeabilised for 5 min in 300 μL per well of 0.1% TritonX-100 (diluted in PBS). […] The cells are washed for 5 min with 300 μL per well of PBS with 0.1% TritonX-100 and then incubated for 60 min with 100 μL per well of blocking buffer (PBS with 0.1% TritonX-100 and 5 Bovine Serum Albumin (BSA)). […] The next day the plates are washed for 5 min with 300 μL PBS/0.1% TritonX-100 at RT and then incubated for 60 min with 50 μL per well of the second antibody buffer (1/500 diluted Goat Anti-Rabbit Immunoglobulin-Horseradish Peroxidase (HRP) (Dako) in blocking buffer) at RT. The plates are washed first for 5 min with 300 μL PBS/0.1% TritonX-100 and then for a further 5 min with 300 μL PBS at RT. The plates are developed for 10 min with 100 μL per well of a peroxidase solution (1:1 mixture of TMB Peroxidase Substrate and Peroxidase Solution B from Kirkegaard & Perry Laboratories, Inc.). The reactions are stopped with 100 μL per well of stop solution (1 M phosphoric acid). The absorbance in each well is measured at 450 nm with a SpectraMax Absorbance Reader. EC50 values for inhibiting the phosphorylation of the IGF-1R in activated cells are calculated using the programmes Fifty (Version 2) and GraphPad (Version 3.0).

[2] = tested on: TC-71 (Ewing's sarcoma) cells; assay: Cell proliferation assay, TC-71 (Alamar Blue); assay type: cell-based; settings: TC-71 cells, 72 h, read-out: TC71 EC50 range
Protocol: Cell Proliferation Assays
Published scientific data has described that interference with the Insulin-like Growth Factor-1 Receptor (IGF-1R) signaling pathway reduces the proliferation of TC-71 cells. Therefore TC-71 cells served as a positive control cell line for monitoring the activity of compounds against IGF-1R-mediated cell proliferation.
2000 TC-71 cells or 1000 HCT 116 cells were seeded per well in 180 μL IMDM+10% foetal calf serum (FCS)+penicillin/streptomycin into 96-well microtitre plates. The plates were placed in a cell culture incubator (37° C. in a humidified atmosphere of 95% […]/5 CO2) overnight. The following day, serial dilutions of compounds, prepared in duplicates, were transferred onto the cell layers (controls without compound). The cells were cultivated for a further 72 h in the cell culture incubator. 20 μL of Alamar Blue™ (Serotec Ltd, Düsseldorf, Germany) was added to each well and the plates incubated for 7 h in the cell culture incubator.

Chain of human IGF-1R (P08069 31-1367): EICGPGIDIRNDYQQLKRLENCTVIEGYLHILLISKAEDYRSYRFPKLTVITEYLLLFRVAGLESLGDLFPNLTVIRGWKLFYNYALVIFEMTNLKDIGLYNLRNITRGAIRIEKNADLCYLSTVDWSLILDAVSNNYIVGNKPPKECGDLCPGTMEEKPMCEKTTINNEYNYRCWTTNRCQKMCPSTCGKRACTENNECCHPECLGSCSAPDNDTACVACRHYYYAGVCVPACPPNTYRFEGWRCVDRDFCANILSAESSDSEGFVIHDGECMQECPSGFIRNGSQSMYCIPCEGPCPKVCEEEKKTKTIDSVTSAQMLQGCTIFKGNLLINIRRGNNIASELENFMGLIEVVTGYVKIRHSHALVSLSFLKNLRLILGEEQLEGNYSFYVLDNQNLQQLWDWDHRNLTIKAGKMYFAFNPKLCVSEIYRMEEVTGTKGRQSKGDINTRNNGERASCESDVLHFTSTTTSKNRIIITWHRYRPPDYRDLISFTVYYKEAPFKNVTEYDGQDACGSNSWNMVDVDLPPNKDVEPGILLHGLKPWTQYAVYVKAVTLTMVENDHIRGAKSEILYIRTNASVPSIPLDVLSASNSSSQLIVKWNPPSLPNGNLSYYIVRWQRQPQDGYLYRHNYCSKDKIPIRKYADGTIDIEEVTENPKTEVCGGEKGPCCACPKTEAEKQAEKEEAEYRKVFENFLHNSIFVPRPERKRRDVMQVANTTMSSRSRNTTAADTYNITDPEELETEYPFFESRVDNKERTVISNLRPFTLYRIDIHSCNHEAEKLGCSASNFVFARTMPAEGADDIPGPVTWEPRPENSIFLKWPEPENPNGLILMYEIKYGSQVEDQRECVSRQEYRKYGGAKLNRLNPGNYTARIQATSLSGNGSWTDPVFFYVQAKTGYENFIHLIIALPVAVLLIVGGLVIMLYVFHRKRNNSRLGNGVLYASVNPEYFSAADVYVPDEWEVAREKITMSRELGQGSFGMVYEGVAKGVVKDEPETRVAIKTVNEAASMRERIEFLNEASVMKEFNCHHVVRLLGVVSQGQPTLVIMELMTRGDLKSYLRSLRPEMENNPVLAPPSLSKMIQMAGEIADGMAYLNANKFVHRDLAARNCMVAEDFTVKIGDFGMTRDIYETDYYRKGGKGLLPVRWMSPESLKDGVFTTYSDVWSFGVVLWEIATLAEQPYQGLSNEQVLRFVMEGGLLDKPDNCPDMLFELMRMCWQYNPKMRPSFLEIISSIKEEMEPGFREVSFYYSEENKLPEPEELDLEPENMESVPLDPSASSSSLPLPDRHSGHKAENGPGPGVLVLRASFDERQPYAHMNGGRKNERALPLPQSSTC
Chain of cytoplasmic kinase domain of human IGF-1R (IGF-1R-GST) (P08069 964-1367 limits assumed): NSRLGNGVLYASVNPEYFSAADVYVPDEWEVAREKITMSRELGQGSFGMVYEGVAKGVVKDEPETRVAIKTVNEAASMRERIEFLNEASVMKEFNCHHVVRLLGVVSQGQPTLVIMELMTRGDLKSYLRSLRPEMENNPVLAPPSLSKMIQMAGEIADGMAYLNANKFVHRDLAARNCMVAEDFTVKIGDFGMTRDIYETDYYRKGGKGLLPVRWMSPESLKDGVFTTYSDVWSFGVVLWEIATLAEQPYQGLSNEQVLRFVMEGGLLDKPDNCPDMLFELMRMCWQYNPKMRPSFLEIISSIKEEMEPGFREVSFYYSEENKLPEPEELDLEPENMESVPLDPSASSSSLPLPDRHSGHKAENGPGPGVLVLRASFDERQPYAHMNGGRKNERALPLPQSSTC

pIC50 [1] | pEC50 (human IGF-1R) | pEC50 [2] | Structure (SMILES)
9.38 | > 8.00 | > 8.00 | CC(C)n1cc(-c2ccc(-c3c4c(nn3C)CCc3cnc(Nc5cnn(CCN6CCOCC6)c5)nc3-4)cc2)cn1 [I-023]
9.80 | – | > 8.00 | COCCN1CCC(n2cc(Nc3ncc4c(n3)-c3c(nn(C)c3-c3ccc(-c5cnn(C)c5)cc3)CC4)cn2)CC1 [I-175]
9.80 | 7.00 to 8.00 | > 8.00 | CCn1ccc(Nc2ncc3c(n2)-c2c(nn(C)c2-c2ccc(-c4cnn(C5CCNCC5)c4)cc2)CC3)n1 [I-063]
10.05 | > 8.00 | > 8.00 | CCn1ccc(Nc2ncc3c(n2)-c2c(nn(C)c2-c2ccc(-c4cnn(CCN5CCC(N(C)C)CC5)c4)cc2)CC3)n1 [I-119]
9.21 | > 8.00 | > 8.00 | COc1cc(C(=O)NC2CCOCC2)ccc1Nc1ncc2c(n1)-c1c(nn(C)c1-c1ccc(-c3cnn(C)c3)cc1)CC2 [I-160]
9.62 | 7.00 to 8.00 | > 8.00 | CN(C)[C@H]1CCN(C(=O)Cn2ccc(Nc3ncc4c(n3)-c3c(nn(C)c3-c3ccc(-c5cnn(C)c5)cc3)CC4)n2)C1 [I-143]
10.05 | > 8.00 | > 8.00 | CCN1CCN(c2ccc(Nc3ncc4c(n3)-c3c(nn(C)c3-c3ccc(-c5cnn(C)c5)cc3)CC4)c(OC)c2)CC1 [I-170]
7.82 | 6.22 to 7.00 | 6.70 to 7.00 | CCn1ccc(Nc2ncc3c(n2)-c2c(nn(C)c2-c2ccc(-c4c(C)noc4C)cc2)CC3)n1 [I-066]
9.68 | > 8.00 | > 8.00 | CC(C)n1cc(-c2ccc(-c3c4c(nn3C)CCc3cnc(Nc5cnn(CCN(C)C)c5)nc3-4)cc2)cn1 [I-020]
9.41 | 7.00 to 8.00 | > 8.00 | CC(=O)N1CCC(n2cc(Nc3ncc4c(n3)-c3c(nn(C)c3Cc3cccc(-c5cnn(C)c5)c3)CC4)cn2)CC1 [I-013]
9.66 | > 8.00 | > 8.00 | COc1cc(C(=O)N2CCOCC2)ccc1Nc1ncc2c(n1)-c1c(nn(C)c1-c1ccc(-c3cnn(C)c3)cc1)CC2 [I-156]
9.47 | – | > 8.00 | CN(C)S(=O)(=O)N1CCC(n2cc(Nc3ncc4c(n3)-c3c(nn(C)c3-c3ccc(-c5cnn(C)c5)cc3)CC4)cn2)CC1 [I-178]
10.30 | > 8.00 | > 8.00 | COc1cc(N2CCN(C(C)C)CC2)ccc1Nc1ncc2c(n1)-c1c(nn(C)c1-c1ccc(-c3cnn(C)c3)cc1)CC2 [I-172]
9.55 | > 8.00 | > 8.00 | COCCn1cc(Nc2ncc3c(n2)-c2c(nn(C)c2-c2ccc(-c4cnn(C(C)C)c4)cc2)CC3)cn1 [I-027]
9.77 | 7.00 to 8.00 | > 8.00 | CC(=O)N1CCC(n2cc(Nc3ncc4c(n3)-c3c(nn(C)c3-c3ccc(-c5cnn(C(C)C)c5)cc3)CC4)cn2)CC1 [I-022]
8.70 | > 8.00 | > 8.00 | COc1cc(N2CCN(S(=O)(=O)N(C)C)CC2)ccc1Nc1ncc2c(n1)-c1c(nn(C)c1-c1ccc(-c3cnn(C)c3)cc1)CC2 [I-176]
9.72 | 7.00 to 8.00 | > 8.00 | COc1cc(C(=O)NC2CN(C)C2)ccc1Nc1ncc2c(n1)-c1c(nn(C)c1-c1ccc(-c3cnn(C)c3)cc1)CC2 [I-164]
9.59 | > 8.00 | – | COc1cc(C(=O)NC(C)C)ccc1Nc1ncc2c(n1)-c1c(nn(C)c1-c1ccc(-c3cnn(C)c3)cc1)CC2 [I-132]
10.10 | > 8.00 | > 8.00 | COc1cc(N2CCN(C3CCOCC3)CC2)ccc1Nc1ncc2c(n1)-c1c(nn(C)c1-c1ccc(-c3cnn(C)c3)cc1)CC2 [I-171]
9.64 | > 8.00 | > 8.00 | COc1cc(C(=O)N[C@@H]2CCN(C)C[C@H]2OC)ccc1Nc1ncc2c(n1)-c1c(nn(C)c1-c1ccc(-c3cnn(C)c3)cc1)CC2 [I-163]
9.51 | > 8.00 | > 8.00 | CCn1ccc(Nc2ncc3c(n2)-c2c(nn(C)c2-c2ccc(-c4cnn(C)c4)cc2Cl)CC3)n1 [I-064]
9.68 | 7.00 to 8.00 | > 8.00 | CC(=O)N1CCC(n2cc(Nc3ncc4c(n3)-c3c(nn(C)c3-c3ccc(-c5cnn(C)c5)cc3)CC4)cn2)CC1 [I-051]
9.64 | – | > 8.00 | Cn1cc(-c2ccc(-c3c4c(nn3C)CCc3cnc(Nc5cnn(C6CCN(S(C)(=O)=O)CC6)c5)nc3-4)cc2)cn1 [I-177]
9.80 | > 8.00 | > 8.00 | COc1cc(C(=O)N2CCN(C)CC2)ccc1Nc1ncc2c(n1)-c1c(nn(C)c1-c1ccc(-c3cnn(C)c3)cc1)CC2 [I-129]
8.70 | 6.22 to 7.00 | 7.00 to 8.00 | CC(=O)N1CCC(n2cc(Nc3ncc4c(n3)-c3c(nn(C)c3-c3ccc(-c5cnn(C)c5)nc3)CC4)cn2)CC1 [I-180]
